Patent US20230076310A1, “COMPOSITION USING NOVEL LACTOBACILLUS PLANTARUM KC3 STRAIN FOR PREVENTION OR TREATMENT OF IMMUNE IMPAIRMENT, RESPIRATORY INFLAMMATORY DISEASE, ALLERGY, AND ASTHMA AND USE THEREOF” (KT&G CORPORATION, priority 2020, published 2023)

Tests used:
[1] = system: croton oil-induced mouse ear edema; experiment: Croton oil-induced mouse ear edema test; format: in vivo, ICR mice; conditions: 10 mg/kg BW oral, about 4 hours after 2.5% croton oil
Procedure: To confirm anti-inflammatory effect of the probiotic lactic acid bacteria (Lactobacillus plantarum KC3, KC3) on ear edema, an experiment was performed according to the croton oil-induced mouse ear edema method by applying the method described in the document (Dong Wook Kim, Kun Ho Son, Hyeun Wook Chang, KiHwan Bae and Sam Sik Kang, Arch Pharm Res., 2003, 3, pp 232-236).
To evaluate anti-inflammatory activity of the samples of the Example above, a croton oil-induced mouse ear edema test was carried out, and results thereof were obtained by measuring the ear thickness of the samples as shown in Table 8. […]
About 1 hour after administration, 2.5% croton oil (C0421 available from TCI Company, […]) dissolved in acetone was applied evenly to the inside and outside of the right ear of each mice to induce ear edema. […] Then, the degree of edema in the ears of the mice was measured according to variations in speed by measuring the thickness of both ears using a thickness gauge (Digimatic thickness gauge, 547-301, Mitutoyo, Japan). Here, based on the degree of and the inhibition rate (%) was calculated based on the degree of edema of the mice in the negative control group (0.5% sodium carboxymethyl cellulose (CMC), Sigma-Aldrich 419273), inhibition rates (%) were calculated, and results thereof are shown in Table 8 below.

[2] = system: neutrophils in BAL fluid; experiment: Number of neutrophils in BAL fluid, mouse model of respiratory damage by air pollutants; format: in vivo, BALb/c male mice; conditions: oral, 11 days (KC3 1×10^9 CFU/mouse; positive control 3 mg per kg BW per day)
Procedure: (§1) BALb/c male mice (Orient Bio Inc., 8-week-old) were divided into groups of 6 mice, and for all groups except for the normal group, components of air pollutants, i.e., 10 mg/ml of coal combustible materials, 10 mg/ml of fly ash, and 5 mg/ml of diesel exhaust particle (DEP) were diluted so that a final concentration of Alum was 1%, and so that a final concentration of each component was 1.5 mg/ml for coal combustible material/fly ash and […] for DEP in a mixture. Then, on each of the 4th, 7th, and 10th days from the start of the experiment, 50 μl of the mixture was directly injected into the airway and nose of the experimental animals according to the Intra-Nazal-Trachea (INT) injection method described in the document (Lim et al., Free Radic Biol Med. 25(6), 635-644. (1998), Shin et al., Korean J. Medicinal Crop Sci 27(3), 218-231. (2019)).
(§2) For a positive control group (dexamethasone, Sigma D2915), lactic acid bacteria (Lactobacillus plantarum KC3, KC3) was diluted at a concentration of 1×10^9 CFU/mouse in a solution containing 0.5% sodium carboxymethyl cellulose (CMC, 419273, Sigma-Aldrich), and then orally administered at a dosage of 3 mg per kg of body weight (BW) per day (for 11 days). On the 12th day after the start of the experiment, an autopsy was performed on the mice, and bronchoalveolar lavage (BAL) fluid was collected. […]

[3] = system: total number of cells in bronchoalveolar lavage (BAL) fluid; experiment: Total number of cells in BAL fluid, mouse model of respiratory damage by air pollutants; format: in vivo, BALb/c male mice; conditions: oral, 11 days (KC3 1×10^9 CFU/mouse; positive control 3 mg per kg BW per day), BAL fluid on 12th day
Procedure: as §1, §2

[4] = system: MIP2; experiment: Inflammation factors in BAL fluid (ELISA), mouse model of respiratory damage by air pollutants; format: in vivo, BALb/c male mice; conditions: oral, 11 days (KC3 1×10^9 CFU/mouse; positive control 3 mg per kg BW per day)
Procedure: as §1
(§3) For a positive control group (dexamethasone, Sigma D2915), lactic acid bacteria (Lactobacillus plantarum KC3, KC3) was diluted at a concentration of 1×10^9 CFU/mouse in a solution containing 0.5% sodium carboxymethyl cellulose (CMC, 419273, Sigma-Aldrich), and then orally administered at a dosage of 3 mg per kg of body weight (BW) per day (for 11 days). On the 12th day after the start of the experiment, an autopsy was performed on the mice, and bronchoalveolar lavage (BAL) fluid was collected.
(§4) To confirm effects of the samples in Examples above on expression levels of inflammation factors in the BAL fluid, an experiment was carried out as follows by applying the method described in the document (Brandt E B et al., J. Allergy Clin. Immunol., 132(5):1194-1204, (2013)).
(§5) An evaluation test was performed using ELISA to measure the expression levels of inflammation factors, such as IL-17A, TNF-α MIP2, and CXCL-1, in the BAL fluid.
(§6) The experiment was carried out in the same manner as in Experimental Examples 4-2 and 4-3, except that […].
(§7) The expression levels of IL-17A, TNF-α MIP2, and CXCL-1 in the BAL fluid were measured using ELISA. IL-17A antibodies (M1700, R&D Systems, Minneapolis, USA), TNF-α antibodies (MTA00B, R&D Systems, Minneapolis, USA), MIP2 antibodies (MM200, R&D Systems, Minneapolis, USA), and CXCL-1 antibodies (MKC00B, R&D Systems, Minneapolis, USA) were diluted with a buffer solution and coated micro-wells, and then cultured at 4° C. for 16 hours. Each well was washed with a washing buffer solution three times, and 10-fold diluted […] was dispensed at 100 μl per well.
(§8) After being left at room temperature for one hour, the wells were washed twice. Then, 100 μl of Avidin-HRP-conjugated antibodies (DY007, R&D Systems, Minneapolis, USA) was treated thereon, and the wells were left again at room temperature for one hour, followed by washing again. A TMB substrate solution (DY007, R&D Systems, Minneapolis, USA) was dispensed at 100 μl per well, and the well plate was left in shadow for 30 minutes. Then, 50 μl of a stopping solution (DY007, R&D Systems, Minneapolis, USA) was treated thereon, and absorbance of the […] was measured at 450 nm.

[5] = system: TNF-α; experiment: as above; format: in vivo, BALb/c male mice; conditions: oral, 11 days (KC3 1×10^9 CFU/mouse; positive control 3 mg per kg BW per day)
Procedure: as §1, §3, §4, §5, §6, §7, §8

[6] = system: CXCL-1; experiment: as above; format: in vivo, BALb/c male mice; conditions: oral, 11 days (KC3 1×10^9 CFU/mouse; positive control 3 mg per kg BW per day)
Procedure: as §1, §3, §4, §5, §6, §7, §8

[7] = system: IL-17A; experiment: as above; format: in vivo, BALb/c male mice; conditions: oral, 11 days (KC3 1×10^9 CFU/mouse; positive control 3 mg per kg BW per day)
Procedure: as §1, §3, §4, §5, §6, §7, §8

[8] = system: Lactobacillus plantarum KC3; experiment: Antibiotics resistance experiment (antibiotic strips on LSM solid medium); format: cell-based; conditions: antibiotic strip on KC3 lawn, 37° C. for 24 hours
Procedure: In order to confirm antibiotics resistance level of the new lactic acid bacteria from the of the Lactobacillus plantarum KC3 the present disclosure, an experiment was performed as follows by applying the method described in the document ([1] Mathur, S. and R. Singh, Antibiotic resistance in food lactic acid bacteria—A review. Int. J. Food Microbiol 2005 105: 281-295); [2] European Food Safety Authority, Guidance on the assessment of bacterial susceptibility to antimicrobials of human and veterinary importance: EFSA Panel on Additives and Products or Substances used in Animal Feed (FEEDAP). The EFSA Journal 2012 2740:1-10. doi:10.2903/j.efsa.2012.2740).
To measure the antibiotics resistance level of the strain, an MIC test was carried out. Lactic acid bacteria that were inoculated into an MRS medium (DF0881-17-5, Difco) and cultured at 37° C. for 18 hours were spread on an LSM solid medium (90% iso-sensitest broth (CM0473, Oxoid), 10% MRS medium (DF0881-17-5, Difco), and 1.5% agar (214010, Difco)). Strips for each type of antibiotics, such as Amikacin (92018, Liofilchem srl), Gentamycin (92009, Liofilchem srl), Kanamycin (92034, Liofilchem srl), Streptomycin (92112, Liofilchem srl), Penicillin-G (92102, Liofilchem srl), Oxacillin (92015, Liofilchem srl), Ampicillin (920030, Liofilchem srl), Bacitracin (92019, Liofilchem srl), Rifampicin (92001, Liofilchem srl), Polymyxin B (92004, Liofilchem srl), Chloramphenico I (92075, Liofilchem srl), Vancomycin (92057, Liofilchem srl), and the like, were put on the medium, and the bacteria were grown at 37° C. for 24 hours.
In Table 4, R indicates resistance and represents that the size of an inhibition zone is about 0 mm; IS indicates medium resistance and represents that the size of an inhibition zone is in a range of about 1 mm to about 5 mm; and S indicates […] and represents that the size of an inhibition zone is greater than about 5 mm.

With `COc1ccc2c(c1)c(CC(=O)O)c(C)n2C(=O)c1ccc(Cl)cc1` [Indomethacin] the “Inhibition rate of ear edema (% of control)” value [1] was 25.6 ± 2.2 % of control and the “Thickness (ear)” value ([1]; edema control 0.806 ± 0.068) was 0.684 ± 0.054.
For `C[C@@H]1C[C@H]2[C@@H]3CCC4=CC(=O)C=C[C@]4(C)[C@@]3(F)[C@@H](O)C[C@]2(C)[C@@]1(O)C(=O)CO` [Positive control group, dexamethasone], the “Inhibition rate (based on induced group), neutrophils” value [2] was 10%, the “Neutrophile No of BAL cel (400X)” value ([2]; Diff-Qick staining, induction group 119 ± 13) was 108 ± 9 and the “Inhibition rate (based on induction group), total BAL cell” value [3] was 11%. For the same compound, the “Total BAL cell” value ([3]; induction group 81.2 ± 19.8) was 72.6 ± 9.5 ×10^4 cells/ml, the “MIP2 inhibition rate (%) based on induced group” value [4] was “(19%)” and the “MIP2 concentration in BAL fluid” value ([4]; ELISA, induction group 68 ± 7) was 55 ± 9 pg/mL. The “TNF-α inhibition rate (%) based on induced group” value [5] was “(66%)”, the “TNF-α concentration in BAL fluid” value ([5]; ELISA, induction group 366 ± 45) was 121 ± 14 pg/mL and the “CXCL-1 inhibition rate (%) based on induced group” value [6] was “(46%)”. For the same compound, the “CXCL-1 concentration in BAL fluid” value ([6]; ELISA, induction group 327 ± 41) was 174 ± 15 pg/mL, the “IL-17A inhibition rate (%) based on induced group” value [7] was “(47%)” and the “IL-17A concentration in BAL fluid” value ([7]; ELISA, induction group 13.4 ± 1.5) was 7.0 ± 0.8 pg/mL.
`NCC[C@H](O)C(=O)N[C@@H]1C[C@H](N)[C@@H](O[C@H]2O[C@H](CN)[C@@H](O)[C@H](O)[C@H]2O)[C@H](O)[C@H]1O[C@H]1O[C@H](CO)[C@@H](O)[C@H](N)[C@H]1O` [Amikacin] was tested, and the “Antibiotic resistance (class)” value [8] was “IS (IS indicates medium resistance and represents that the size of an inhibition zone is in a range of about 1 mm to about 5 mm)” and the “Antibiotic resistance, size of inhibition zone” value [8] was “(1 mm)”.
In the case of `CC1(C)S[C@@H]2[C@H](NC(=O)[C@H](N)c3ccccc3)C(=O)N2[C@H]1C(=O)O` [Ampicillin], the “Antibiotic resistance (class)” value [8] is reported as “S (S indicates resistance and represents that the size of an inhibition zone is greater than about 5 mm)” and the “Antibiotic resistance, size of inhibition zone” value [8] is reported as “(14 mm)”.
For `CCC[C@@H]1C[C@@H](C(=O)N[C@@H]([C@H]2O[C@H](SC)[C@H](O)[C@@H](O)[C@H]2O)[C@@H](C)O)N(C)C1` [Lincomycin], the “Antibiotic resistance (class)” value [8] was “S (S indicates resistance and represents that the size of an inhibition zone is greater than about 5 mm)” and the “Antibiotic resistance, size of inhibition zone” value [8] was “(10 mm)”.
With `CO[C@@H]1[C@@H](OC(N)=O)[C@@H](O)[C@H](Oc2ccc3c(O)c(NC(=O)c4ccc(O)c(CC=C(C)C)c4)c(=O)oc3c2C)OC1(C)C` [Novabiocin] the “Antibiotic resistance (class)” value [8] was “S (S indicates resistance and represents that the size of an inhibition zone is greater than about 5 mm)” and the “Antibiotic resistance, size of inhibition zone” value [8] was “(7 mm)”.
